Tested on: reagin-mediated rat Passive Cutaneous Anaphylaxis (PCA)
Assay: Reagin-mediated rat Passive Cutaneous Anaphylaxis (PCA) screening test
Type: in vivo, Sprague-Dawley rats
Conditions: iv, 1-5 minutes prior to antigen challenge (DSCG: at the time of antigen challenge), read-out: Rat PCA Test ID50, i.v. (dose of compound that inhibits 50% of the response)
Protocol: The reagin-mediated rat Passive Cutaneous Anaphylaxis (PCA) screening test used to evaluate the present compounds is generally regarded as one of the best animal models for use in predicting the antiallergy activity of test compounds in man. Briefly, the method consists of passive sensitization of skin sites on the test animals with reaginic antibodies followed after 24 hours by administration of the test drug and antigen challenge. The allergic response is measured by use of Evans' blue dye and is evaluated by the spot diameter at the injection side. Details of the test are provided below.
A substituted ovalbumin antigen is used both as immunogen and challenging antigen. The antigen is prepared as follows: 500 mg. ovalbumin (EA) and 500 mg. K2 CO3 are dissolved in 25 ml. distilled H2 O and stirred at room temperature for 5 minutes. Five hundred (500) mg. dinitrobenzene sulfonic acid, Na^+ salt, (previously recrystallized from hot absolute ethanol) is then added slowly with continued stirring. The reaction mixture is then immediately placed in the dark and allowed to proceed for 2 hours with constant stirring. After 2 hours the mixture is placed in suitable dialysis tubing and dialyzed against 5 changes (4 liters each) of distilled H2 O at 5° C. After dialysis the product is lyophilized and stored at room temperature in a brown or amber container. The antigen obtained will appear as a light yellow, amorphous solid which is very soluble in water or saline. It is designated as DNP denatured ovalbumin (DNP-d EA).
Adult, male Sprague-Dawley rats are used as a source or reagin-rich antisera for the PCA model. Immunization is by a combination of DNP-d EA on Al(OH)3 gel and B. pertussis vaccine. Preparation of the DNP-d EA - gel immunogen is as follows: Dissolve the DNP-d EA in TBS so as to give a concentration of 10 mg./ml. Slowly add 1 ml. of this solution to 10 ml. Al(OH)3 gel (10 mg. solids/ml.) with constant stirring at room temperature. Stir the mixture an additional 30 minutes to insure a uniform adsorption of antigen on gel.
The resulting preparation is then used in combination with phase I B. pertussis vaccine to immunize male S/D rats as follows: For each rat administer 0.1 ml. DNP-d EA - gel suspension intramuscularly in each hind leg (200 μg DNP-d EA and 2 mg. gel total dose). Follow these injections by the intraperitoneal administration of 1.0 ml. B. pertussis vaccine (10-20 × 10^9 organisms). The use of light ether anesthesia during this procedure is recommended to insure proper intramuscular and intraperitoneal injections. Nine days following immunization (but no longer than 10) the animals are exsanguinated by cardiac puncture or abdominal aorta cannulation under ether or pentobarbital anesthesia. The collected whole blood is allowed to clot, the serum separated by centrifugation and the individual serum samples stored frozen until assayed for IgE content.
Individual serum samples should be screened for reaginic antibody concentration before being pooled with other sera, as not all rats respond to immunization procedures with reagin production. A 1:50 saline dilution of serum from each immunized rat is used for this purpose. Intradermal injections of 0.05 ml. of the diluted sera are made in the shaven backs of two small female recipient rats, 100-120 gms. Several serum samples can be tested simultaneously in recipient animals. After a 24 to 48 hour latent period antigen challenge is accomplished by intravenous administration to each rat of 1 mg. DNP-d EA in 0.5 ml. 0.5% Evans' blue dye in saline. Sera which show positive PCA reactions at the 1:50 dilution, as measured 20 to 30 minutes post-challenge are pooled, dispensed in small aliquots and stored at -70° C. or lower until used. Negative sera may be discarded.
The IgE titer of the antisera pool should then be determined. […]

SMILES | ED50
O=C(O)c1cnc2c3ccccc3ccn2c1=O [2,3, 4-Oxo-4H-pyrimido[2,1-a]isoquinoline-3-carboxylic Acid] | 0.33 mg/kg
O=C(O)c1cnc2c3ccccc3c(O)cn2c1=O [Example 5, 7-Hydroxy-4-oxo-4H-pyrimido[2,1-a]isoquinoline-3-carboxylic Acid] | ~1.7 mg/kg
O=c1c(-c2nnn[nH]2)cnc2c3ccccc3ccn12 [Example 8, 3-(1H-Tetrazol-5-yl)-4H-pyrimido[2,1-a]isoquinol-4-one] | 0.04 mg/kg
COc1ccc2ccn3c(=O)c(C(=O)O)cnc3c2c1 [Example 16, 10-Methoxy-4-oxo-4H-pyrimido[2,1-a]isoquinoline-3-carboxylic acid] | ~1 mg/kg
CCc1cn2c(=O)c(C(=O)O)cnc2c2ccccc12 [Example 17A, 7-ethyl-4-oxo-4H-pyrimido[2,1-a]isoquinoline-3-carboxylic Acid] | ~0.048 mg/kg
C=CCc1cn2c(=O)c(C(=O)O)cnc2c2cc(OC)ccc12 [Example 17C, 7-allyl-10-methoxy-4-oxo-4H-pyrimido[2,1-a]isoquinoline-3-carboxylic Acid] | ~0.53 mg/kg
CCCc1cn2c(=O)c(C(=O)O)cnc2c2cc(OC)ccc12 [Example 17D, 10-methoxy-4-oxo-7-propyl-4H-pyrimido[2,1-a]isoquinoline-3-carboxylic Acid] | ~0.071 mg/kg
COc1ccc2c(ccn3c(=O)c(C(=O)O)cnc23)c1 [Example 18, 9-Methoxy-4-oxo-4H-pyrimido[2,1-a]isoquinoline-3-carboxylic Acid] | ~1.5 mg/kg

Same assay, conditions: po, 10 minutes prior to antigen challenge, Table 1, read-out: Rat PCA Test ID50, p.o. (dose of compound that inhibits 50% of the response)

SMILES | ED50
CCOC(=O)c1cnc2n(c1=O)CC(CC)c1ccccc1-2 (racemic) [Example 10B, ethyl (±)-7-Ethyl-6,7-dihydro-4-oxo-4H-pyrimido[2,1-a]isoquinoline-3-carboxylate] | 0.13 mg/kg
C=CCC1Cn2c(ncc(C(=O)OCC)c2=O)-c2cc(OC)ccc21 (racemic) [Example 10D, ethyl (±)-7-Allyl-6,7-dihydro-10-methoxy-4-oxo-4H-pyrimido[2,1-a]-3-carboxylate] | ~0.31 mg/kg
CCC1Cn2c(ncc(C(=O)O)c2=O)-c2ccccc21 (racemic) [Example 11C, (±)-7-ethyl-6,7-dihydro-4-oxo-4H-pyrimido[2,1-a]isoquinoline-3-carboxylic Acid] | 0.048 mg/kg
C=CCC1Cn2c(ncc(C(=O)O)c2=O)-c2cc(OC)ccc21 (racemic) [Example 11E, (±)-7-allyl-6,7-dihydro-10-methoxy-4-oxo-4H-pyrimido[2,1-a]isoquinoline-3-carboxylic Acid] | ~0.077 mg/kg
CCOC(=O)c1cnc2n(c1=O)CC(CC(OC)OC)c1ccc(OC)cc1-2 (racemic) [Example 22 (CH2 CH(OMe)2), Ethyl (±)-6,7-Dihydro-7-(2,2-dimethoxyethyl)-10-methoxy-4-oxo-4H-pyrimido[2,1-a]isoquinoline-3-carboxylate] | ~3.3 mg/kg
CCOC(=O)c1cnc2n(c1=O)CC(CC=O)c1ccc(OC)cc1-2 (racemic) [Example 22 (CH2 CHO), Ethyl (±)-7-Formylmethyl-6,7-dihydro-10-methoxy-4-oxo-4H-pyrimido[2,1-a]isoquinoline-3-carboxylate] | ~20 mg/kg
CCC1Cn2c(ncc(-c3nnn[nH]3)c2=O)-c2ccccc21 (racemic) [Example 23, (±)-7-Ethyl-6,7-dihydro-3-(1H-tetrazol-5-yl)-4H-pyrimido[2,1-a]isoquinol-4-one] | 0.1 mg/kg
CCOC(=O)c1cnc2n(c1=O)CCc1ccccc1-2 [Example 6, Ethyl 6,7-Dihydro-4-oxo-4H-pyrimido[2,1-a]isoquinoline-3-carboxylate] | 2.3 mg/kg
O=C(O)c1cnc2n(c1=O)CCc1ccccc1-2 [Example 7, 6,7-Dihydro-4-oxo-4H-pyrimido[2,1-a]isoquinoline-3-carboxylic Acid] | 7.9 mg/kg
CCOC(=O)c1cnc2n(c1=O)CCc1cc(OC)ccc1-2 [Example 9, Ethyl 6,7-Dihydro-9-methoxy-4-oxo-4H-pyrimido[2,1-a]isoquinoline-3-carboxylate] | ~13 mg/kg
CCOC(=O)c1cnc2n(c1=O)CCc1ccc(OC)cc1-2 [Example 10A, ethyl 6,7-Dihydro-10-methoxy-4-oxo-4H-pyrimido[2,1-a]isoquinoline-3-carboxylate] | ~0.81 mg/kg
CCOC(=O)c1cnc2n(c1=O)CCc1cc(OC)c(OC)cc1-2 [Example 10C, ethyl 6,7-Dihydro-9,10-dimethoxy-4-oxo-4H-pyrimido[2,1-a]isoquinoline-3-carboxylate] | ~0.37 mg/kg
COc1ccc2c(c1)CCn1c-2ncc(C(=O)O)c1=O [Example 11A, 6,7-dihydro-9-methoxy-4-oxo-4H-pyrimido[2,1-a]isoquinoline-3-carboxylic Acid] | 2.6 mg/kg
COc1ccc2c(c1)-c1ncc(C(=O)O)c(=O)n1CC2 [Example 11B, 6,7-dihydro-10-methoxy-4-oxo-4H-pyrimido[2,1-a]isoquinoline-3-carboxylicAcid] | ~0.48 mg/kg
COc1cc2c(cc1OC)-c1ncc(C(=O)O)c(=O)n1CC2 [Example 11D, 6,7-dihydro-9,10-dimethoxy-4-oxo-4H-pyrimido[2,1-a]isoquinoline-3-carboxylic Acid] | ~0.31 mg/kg
O=C(O)c1cnc2n(c1=O)CCc1ccc(O)cc1-2 [Example 19, 6,7-Dihydro-10-hydroxy-4-oxo-4H-pyrimido[2,1-a]isoquinoline-3-carboxylic Acid] | ~1.2 mg/kg
O=C(O)c1cnc2n(c1=O)CCc1cc(O)c(O)cc1-2 [Example 20, 6,7-Dihydro-9,10-dihydroxy-4-oxo-4H-pyrimido[2,1-a]isoquinoline-3-carboxylic Acid] | ~0.077 mg/kg

Same assay, conditions: po, 10 minutes prior to antigen challenge, Table II and its footnote, read-out: Rat PCA Test ID50, p.o. (dose of compound that inhibits 50% of the response)

SMILES | ED50
CCOC(=O)c1cnc2c3ccccc3ccn2c1=O [Example 1, Ethyl 4-Oxo-4H-pyrimido[2,1-a]isoquinoline-3-carboxylate] | > 5 mg/kg
CCOC(=O)c1cnc2c3ccccc3ccn2c1=N [Example 3A, Ethyl 4-Imino-4H-pyrimido[2,1-a]isoquinoline-3-carboxylate] | ~0.19 mg/kg
CCOC(=O)c1cnc2c3ccc(OC)cc3ccn2c1=O [Example 12, Ethyl 9-Methoxy-4-oxo-4H-pyrimido[2,1-a]isoquinoline-3-carboxylate] | ~31 mg/kg
CCOC(=O)c1cnc2c3cc(OC)ccc3ccn2c1=O [Example 13A, ethyl 10-Methoxy-4-oxo-4H-pyrimido[2,1-a]isoquinoline-3-carboxylate] | ~0.9 mg/kg
CCOC(=O)c1cnc2c3ccccc3c(CC)cn2c1=O [Example 13B, ethyl 7-Ethyl-4-oxo-4H-pyrimido[2,1-a]isoquinoline-3-carboxylate] | ~5 mg/kg
CCOC(=O)c1cnc2c3cc(OC)c(OC)cc3ccn2c1=O [Example 13C, ethyl 9,10-Dimethoxy-4-oxo-4H-pyrimido[2,1-a]isoquinoline-3-carboxylate] | ~2.63 mg/kg
C=CCc1cn2c(=O)c(C(=O)OCC)cnc2c2cc(OC)ccc12 [Example 14, Ethyl 7-Allyl-10-methoxy-4-oxo-4H-pyrimido[2,1-a]isoquinoline-3-carboxylate] | > 5 mg/kg
CCCc1cn2c(=O)c(C(=O)OCC)cnc2c2cc(OC)ccc12 [Example 15, Ethyl 10-Methoxy-4-oxo-7-propyl-4H-pyrimido[2,1-a]isoquinoline-3-carboxylate] | ~16 mg/kg
COc1cc2ccn3c(=O)c(C(=O)O)cnc3c2cc1OC [Example 17B, 9,10-dimethoxy-4-oxo-4H-pyrimido[2,1-a]isoquinoline-3-carboxylic Acid] | ~0.01 mg/kg

Reference: patent publication US4127720A, “Pyrimido[2,1-a]isoquinoline derivatives having antiallergy activity” (priority 1977, dated 1978)
